For data set [1], the system named is TCC97-7 bladder cancer cells carrying the Ser249Cys mutation of FGF-R3. Description: Reduction of intracellular ATP content of TCC97-7 cells in serum-supplemented medium (Cell Titer-Glo). The note with it: 72 h, TCC97-7 cells cultured in the presence of serum, after 3 days, read-out: Inhibition of the amount of intracellular ATP (%). It counts as cell-based. The procedure: Evaluation of the Capacity of FGF-R Antagonists to Reduce the ATP Content of TCC97-7 Bladder Cancer Cells Carrying the Ser249Cys Mutation of FGF-R3, Cultured in a Serum-Supplemented Medium
To do this, 3000 cells are seeded in 50 μl of complete medium (Ham-F/12, 1% FCS, 2 mM glutamine, non-essential amino acids, sodium pyruvate, 1% insulin/transferrin/selenium, hydrocortisone). 16 hours later, 50 μl of the various compounds are added at 2 and 20 μM after dilution in complete culture medium in order to obtain final concentrations of 1 and 10 μM. After 3 days, the ATP content of the cells is measured using the Cell Titer-Glo® Luminescent Cell Viability Assay kit (Promega, France) according to the supplier's recommendations. The percentage inhibition of the amount of intracellular ATP is calculated by considering the ATP content of the cells cultured in the absence of antagonist to be 0% inhibition. 100% inhibition would correspond to a well in which the ATP content is zero.
Thus, compounds 1 to 24 are capable of inhibiting the amount of intracellular ATP in TCC97-7 cells by more than 20% at the dose of 1 or 10 μM (Table No. 3).

Data set [2] deals with bladder cancer tumour cells of TCC97-7 type carrying the Ser249Cys mutation of FGF receptor 3. Description: Inhibition of serum-induced proliferation of TCC97-7 bladder cancer cells (cell-covered surface area, Incucyte). It counts as cell-based. Particulars: 72 h, TCC97-7 cell line in the presence of serum, after 3 days. The procedure:
Evaluation of the Capacity of the FGF-R Antagonists to Inhibit Serum-Induced Proliferation of Bladder Cancer Tumour Cells of TCC97-7 Type Carrying the Ser249Cys Mutation of FGF Receptor 3
To do this, 2000 cells are seeded in the morning in 50 μl of complete medium (Ham-F/12, 1% FCS, 2 mM glutamine, non-essential amino acids, sodium pyruvate, 1% insulin/transferrin/selenium, hydrocortisone). In the evening, 50 μl of the various compounds are added at 2 or 20 μM after dilution in complete culture medium in order to obtain final concentrations of 1 or 10 μM. After 3 days, cell proliferation is evaluated by measuring the cell-covered surface area of a well of a 96 well plate. This surface area is measured using an Incucyte apparatus (Essen BioScience). The percentage inhibition of the cell proliferation is calculated by considering the surface area occupied by the TCC97-7 cells cultured in the absence of FGF-R antagonists to be 0% inhibition. 100% inhibition would correspond to a well no longer containing cells.
Thus, compounds 1 to 24 are capable of inhibiting TCC97-7 cell proliferation by more than 20% at the dose of 1 or 10 μM. (Table No. 2).

Structures can show the parent of a compound that is named as a salt.

As for `O=C(c1ccc(-c2cc(C(F)F)c3c(-c4ccccc4)n[nH]c3n2)cc1)N1CCCC1` (as salt: hydrochloride) [compound 5, [4-(4-Difluoromethyl-3-phenyl-1H-pyrazolo[3,4-b]pyridin-6-yl)phenyl]pyrrolidin-1-ylmethanone hydrochloride], the melting point (as a rule, the temperature, or range, at which the solid turns liquid) was 248 °C.

With `N#Cc1cc(-c2cc(C(F)F)c3c(-c4ccccc4)n[nH]c3n2)ccc1N` (as salt: hydrochloride) [compound 22, 2-Amino-5-(4-difluoromethyl-3-phenyl-1H-pyrazolo[3,4-b]pyridin-6-yl)benzonitrile hydrochloride], the melting point worked out at 282 °C.

For `Cn1nc(-c2ccccc2)c2c(C(F)(F)F)cc(-c3cccc(C(N)=O)c3)nc21` [compound 1, 3-(1-methyl-3-phenyl-4-trifluoromethyl-1H-pyrazolo[3,4-b]pyridin-6-yl)benzamide], in data set [1], the inhibition (usually the change of the read-out against control, counted positive when it falls) at 1 µM is 10.9% and the inhibition at 10 µM amounted to 41.1%. Also, in data set [2], the inhibition at 1 µM came to 8% and the inhibition at 10 µM was determined as 91.6%.

On to `CNC(=O)c1cc(-c2cc(C(F)(F)F)c3c(-c4ccccc4)nn(C)c3n2)ccc1F` [compound 2, 2-Fluoro-N-methyl-5-(1-methyl-3-phenyl-4-trifluoromethyl-1H-pyrazolo[3,4-b]pyridin-6-yl)benzamide], for which the inhibition at 1 µM in data set [1] was 17.9%; in data set [2], 4%. The results for the inhibition at 10 µM in data set [1] and in data set [2] were 35.9% and 53.2%, respectively.

`CN(C)C(=O)c1cccc(-c2cc(C(F)(F)F)c3c(-c4ccccc4)nn(C)c3n2)c1` [compound 4, N,N-Dimethyl-3-(1-methyl-3-phenyl-4-trifluoromethyl-1H-pyrazolo[3,4-b]pyridin-6-yl)benzamide]: in data set [1], the inhibition at 1 µM turned out to be 23.7% and the inhibition at 10 µM was 49.6%. Besides, in data set [2], the inhibition at 1 µM was 5% and the inhibition at 10 µM came out at 64.4%.

`O=C(c1ccc(-c2cc(C(F)F)c3c(-c4ccccc4)n[nH]c3n2)cc1)N1CCCC1` [compound 5, [4-(4-Difluoromethyl-3-phenyl-1H-pyrazolo[3,4-b]pyridin-6-yl)phenyl]pyrrolidin-1-ylmethanone hydrochloride]: the inhibition at 1 µM is 37.1% in data set [1] and 45.7% in data set [2]. Further, the inhibition at 10 µM in data set [1] came out at 40.8%; in data set [2], 19.5%.

Regarding `O=C(c1cccc(-c2cc(C(F)F)c3c(-c4ccccc4)n[nH]c3n2)c1)N1CCCC1` [compound 6, [3-(4-Difluoromethyl-3-phenyl-1H-pyrazolo[3,4-b]pyridin-6-yl)phenyl]pyrrolidin-1-ylmethanone hydrochloride], the inhibition at 1 µM in data set [1] came out at 26.9%; in data set [2] it was 16.2%. The inhibition at 10 µM is 90.5% in data set [1] and 83.9% in data set [2].

Regarding `FC(F)c1cc(-c2cccc(N3CCCCC3)c2)nc2[nH]nc(-c3ccccc3)c12` [compound 7, 4-Difluoromethyl-3-phenyl-6-(3-piperidin-1-ylphenyl)-1H-pyrazolo[3,4-b]pyridine hydrochloride], in data set [1], the inhibition at 1 µM was found to be 20.4% and the inhibition at 10 µM turned out to be 78%. In data set [2], the inhibition at 1 µM was -50.3% and the inhibition at 10 µM was found to be 52.2%.

Turning to `CN(C)CCn1nc(-c2ccccc2)c2c(C(F)(F)F)cc(-c3ccc(N)c(C#N)c3)nc21` [compound 8, 2-Amino-5-[1-(2-dimethylamino-ethyl)-3-phenyl-4-trifluoromethyl-1H-pyrazolo[3,4-b]pyridin-6-yl]benzonitrile], in data set [1], the inhibition at 1 µM is 27.7% and the inhibition at 10 µM stood at 97.8%. Further, in data set [2], the inhibition at 1 µM came out at 10.8% and the inhibition at 10 µM was 95.2%.

In the case of `N#Cc1cc(-c2cc(C(F)(F)F)c3c(-c4ccccc4)nn(CCN4CCCCC4)c3n2)ccc1N` [compound 10, 2-Amino-5-[3-phenyl-1-(2-piperidin-1-ylethyl)-4-trifluoromethyl-1H-pyrazolo[3,4-b]pyridin-6-yl]benzonitrile], the inhibition at 1 µM in data set [1] came out at 11%; in data set [2], 22.8%. In addition, the inhibition at 10 µM in data set [1] was 94.4%; in data set [2], 85.9%.

On to `CS(=O)(=O)Nc1cccc(-c2cc(C(F)(F)F)c3c(-c4ccccc4)n[nH]c3n2)c1` [compound 13, N-[3-(3-Phenyl-4-trifluoromethyl-1H-pyrazolo[3,4-b]pyridin-6-yl)phenyl]methanesulphonamide hydrochloride], for which, in data set [1], the inhibition at 1 µM turned out to be 56% and the inhibition at 10 µM worked out at 63%. In addition, in data set [2], the inhibition at 1 µM came to 0% and the inhibition at 10 µM came to 57%.

With `CN(C)CCn1nc(-c2ccccc2)c2c(C(F)F)cc(-c3ccc(N)c(C#N)c3)nc21` [compound 14, 2-Amino-5-[4-difluoromethyl-1-(2-dimethylaminoethyl)-3-phenyl-1H-pyrazolo[3,4-b]pyridin-6-yl]benzonitrile], in data set [1], the inhibition at 1 µM amounted to 32% and the inhibition at 10 µM is 77%.

The molecule `Nc1ccc(-c2cc(C(F)(F)F)c3c(-c4ccccc4)n[nH]c3n2)cc1` [compound 16, 4-(3-Phenyl-4-trifluoromethyl-1H-pyrazolo[3,4-b]pyridin-6-yl)phenylamine] displayed a melting point of 237 °C. In data set [1], the inhibition at 1 µM was 24% and the inhibition at 10 µM was 38%.

Regarding `CNC(=O)c1cccc(-c2cc(C(F)(F)F)c3c(-c4ccccc4)n[nH]c3n2)c1` [compound 17, N-Methyl-3-(3-phenyl-4-trifluoromethyl-1H-pyrazolo[3,4-b]pyridin-6-yl)benzamide hydrochloride], in data set [1], the inhibition at 1 µM is 13% and the inhibition at 10 µM is 69%.

As for `CN(C)c1ccc(-c2cc(C(F)(F)F)c3c(-c4ccccc4)n[nH]c3n2)cc1` [compound 19, Dimethyl-[4-(3-phenyl-4-trifluoromethyl-1H-pyrazolo[3,4-b]pyridin-6-yl)phenyl]amine], in data set [1], the inhibition at 1 µM turned out to be 30% and the inhibition at 10 µM came out at 63%.

For the molecule `N#Cc1cc(-c2cc(C(F)(F)F)c3c(-c4ccccc4)n[nH]c3n2)ccc1F` [compound 20, 2-Fluoro-5-(3-phenyl-4-trifluoromethyl-1H-pyrazolo[3,4-b]pyridin-6-yl)benzonitrile], in data set [1], the inhibition at 1 µM was 11% and the inhibition at 10 µM was 26%.

On to `Cn1nc(-c2ccccc2)c2c(C(F)(F)F)cc(-c3cccc(NS(C)(=O)=O)c3)nc21` [compound 21, N-[3-(1-Methyl-3-phenyl-4-trifluoromethyl-1H-pyrazolo[3,4-b]pyridin-6-yl)phenyl]methanesulphonamide], for which the results for the inhibition at 1 µM in data set [1] and in data set [2] were -1% and -3%, respectively. Further, the inhibition at 10 µM in data set [1] was determined as 25%; in data set [2] it was 61%.

Consider `N#Cc1cc(-c2cc(C(F)F)c3c(-c4ccccc4)n[nH]c3n2)ccc1N` [compound 22, 2-Amino-5-(4-difluoromethyl-3-phenyl-1H-pyrazolo[3,4-b]pyridin-6-yl)benzonitrile hydrochloride], for which, in data set [1], the inhibition at 1 µM is 27% and the inhibition at 10 µM was determined as 53%.

Regarding `Cn1nc(-c2ccccc2)c2c(C(F)(F)F)cc(-c3ccc(C(=O)O)cc3)nc21` [compound 23, 4-(1-Methyl-3-phenyl-4-trifluoromethyl-1H-pyrazolo[3,4-b]pyridin-6-yl)benzoic acid], the values for the inhibition at 1 µM in data set [1] and in data set [2] were 17% and 8%, respectively. Besides, the inhibition at 10 µM in data set [1] was determined as 40%; in data set [2], 33%.

Turning to `FC(F)(F)c1cc(-c2ccc(N3CCOCC3)cc2)nc2[nH]nc(-c3ccccc3)c12` [compound 24, 6-(4-Morpholin-4-ylphenyl)-3-phenyl-4-trifluoromethyl-1H-pyrazolo[3,4-b]pyridine hydrochloride], in data set [1], the inhibition at 1 µM came out at 6% and the inhibition at 10 µM was 27%.

For the origin of these results see patent US9572799B2, “Pyrazolopyridine derivatives for use in the treatment of bladder cancer” (SANOFI, priority 2013, dated 2017).
